IC50 data for one compound are collected here from paper PMC7701510, “Identification of HN252 as a potent inhibitor of protein phosphatase PPM1B” (Journal of Cellular and Molecular Medicine, 2020).

What all share (format): biochemical
Test [1] has as its target T1, PHLPP2 (Homo sapiens, UniProt Q6ZVD8).
T1 sequence (Q6ZVD8 1-1323): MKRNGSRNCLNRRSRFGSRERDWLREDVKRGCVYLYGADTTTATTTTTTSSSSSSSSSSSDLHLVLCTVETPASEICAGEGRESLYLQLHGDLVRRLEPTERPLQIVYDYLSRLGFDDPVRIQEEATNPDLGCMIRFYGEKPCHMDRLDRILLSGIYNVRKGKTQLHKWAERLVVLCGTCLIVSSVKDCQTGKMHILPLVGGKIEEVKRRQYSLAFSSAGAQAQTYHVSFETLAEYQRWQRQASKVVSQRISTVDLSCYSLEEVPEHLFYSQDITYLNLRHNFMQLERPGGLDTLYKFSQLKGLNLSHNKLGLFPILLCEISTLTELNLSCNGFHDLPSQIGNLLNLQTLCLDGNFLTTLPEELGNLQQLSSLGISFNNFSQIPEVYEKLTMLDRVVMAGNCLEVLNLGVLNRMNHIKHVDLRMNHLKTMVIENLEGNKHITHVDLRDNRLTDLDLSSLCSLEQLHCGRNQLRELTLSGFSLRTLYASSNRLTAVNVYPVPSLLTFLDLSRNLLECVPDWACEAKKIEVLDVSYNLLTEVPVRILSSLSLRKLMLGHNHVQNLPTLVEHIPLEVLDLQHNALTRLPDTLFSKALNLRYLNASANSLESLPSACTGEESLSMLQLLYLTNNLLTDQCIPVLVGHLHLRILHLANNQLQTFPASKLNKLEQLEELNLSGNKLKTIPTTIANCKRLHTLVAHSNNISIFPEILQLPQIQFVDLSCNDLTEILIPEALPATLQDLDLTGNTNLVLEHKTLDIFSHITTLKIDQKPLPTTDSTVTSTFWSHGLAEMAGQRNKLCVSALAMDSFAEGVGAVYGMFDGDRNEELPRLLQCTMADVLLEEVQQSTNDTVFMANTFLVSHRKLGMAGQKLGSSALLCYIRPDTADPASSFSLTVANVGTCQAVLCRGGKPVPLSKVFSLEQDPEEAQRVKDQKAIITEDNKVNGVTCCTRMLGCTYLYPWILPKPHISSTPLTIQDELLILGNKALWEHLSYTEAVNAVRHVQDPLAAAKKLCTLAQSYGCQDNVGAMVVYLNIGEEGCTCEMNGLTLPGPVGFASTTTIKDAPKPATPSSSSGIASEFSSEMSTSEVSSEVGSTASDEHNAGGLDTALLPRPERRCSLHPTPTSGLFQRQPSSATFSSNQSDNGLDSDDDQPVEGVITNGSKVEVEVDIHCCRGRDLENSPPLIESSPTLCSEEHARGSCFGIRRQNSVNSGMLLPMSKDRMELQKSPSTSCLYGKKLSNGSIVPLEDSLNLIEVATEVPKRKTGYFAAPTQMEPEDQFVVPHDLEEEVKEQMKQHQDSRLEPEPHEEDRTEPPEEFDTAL
The experiment in a line: pNPP hydrolysis phosphatase assay (selectivity panel). Conditions: pNPP as substrate.

The target of test [2] is YPH (Yersinia enterocolitica, UniProt P15273).
Chain of YPH (P15273 163-468 limits assumed): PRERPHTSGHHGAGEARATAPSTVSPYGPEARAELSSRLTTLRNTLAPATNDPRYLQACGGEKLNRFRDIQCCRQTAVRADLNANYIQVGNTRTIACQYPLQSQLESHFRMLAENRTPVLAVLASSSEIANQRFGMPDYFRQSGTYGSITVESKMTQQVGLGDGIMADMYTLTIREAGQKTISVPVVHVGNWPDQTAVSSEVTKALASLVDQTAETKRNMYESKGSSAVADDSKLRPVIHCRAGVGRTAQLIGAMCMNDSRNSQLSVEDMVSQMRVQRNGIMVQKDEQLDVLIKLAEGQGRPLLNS
Test [3] has as its target T2, SSH1 (Homo sapiens, UniProt Q8WYL5).
T2 sequence (Q8WYL5 1-1049): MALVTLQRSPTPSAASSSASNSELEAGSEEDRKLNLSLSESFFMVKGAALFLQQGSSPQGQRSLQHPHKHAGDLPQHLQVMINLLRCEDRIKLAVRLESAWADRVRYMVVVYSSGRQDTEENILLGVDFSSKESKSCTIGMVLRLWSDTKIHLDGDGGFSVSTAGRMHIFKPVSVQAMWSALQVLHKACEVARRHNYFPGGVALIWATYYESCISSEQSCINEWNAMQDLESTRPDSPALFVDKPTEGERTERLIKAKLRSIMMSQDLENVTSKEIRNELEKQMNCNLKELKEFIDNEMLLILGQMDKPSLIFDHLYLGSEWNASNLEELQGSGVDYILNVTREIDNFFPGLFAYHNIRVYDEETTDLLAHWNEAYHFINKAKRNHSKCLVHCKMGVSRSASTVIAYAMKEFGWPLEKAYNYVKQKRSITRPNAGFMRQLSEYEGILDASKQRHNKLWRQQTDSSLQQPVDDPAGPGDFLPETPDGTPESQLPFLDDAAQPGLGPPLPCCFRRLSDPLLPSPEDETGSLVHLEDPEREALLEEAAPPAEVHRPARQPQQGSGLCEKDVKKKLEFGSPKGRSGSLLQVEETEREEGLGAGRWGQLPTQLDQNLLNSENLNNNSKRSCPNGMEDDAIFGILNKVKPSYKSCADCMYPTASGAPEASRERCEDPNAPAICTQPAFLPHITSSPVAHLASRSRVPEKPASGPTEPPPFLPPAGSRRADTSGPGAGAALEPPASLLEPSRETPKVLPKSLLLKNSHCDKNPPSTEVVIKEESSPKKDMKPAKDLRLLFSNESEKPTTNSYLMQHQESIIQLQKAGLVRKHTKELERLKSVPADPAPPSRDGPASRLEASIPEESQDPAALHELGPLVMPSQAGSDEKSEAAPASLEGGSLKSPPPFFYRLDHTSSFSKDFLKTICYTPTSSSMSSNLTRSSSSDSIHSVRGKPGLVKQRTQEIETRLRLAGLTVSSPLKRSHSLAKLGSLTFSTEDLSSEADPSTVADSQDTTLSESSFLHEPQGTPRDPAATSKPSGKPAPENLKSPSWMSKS
The experiment in a line: pNPP hydrolysis phosphatase assay (selectivity panel). As to conditions: pNPP as substrate. The protocol: The kinetic assays of PPM1B were carried out at 37°C in 0.1 M acetic acid buffer (50 mM Tris, 40 mM Mn^2+, pH 7.0). The p‐nitrophenyl phosphate (pNPP, Sigma) was used as the substrate which could be conveniently measured at 405 nm. Reactions were started by addition of pNPP to a reaction mixture containing PPM1B (0.4 μM PPM1B, final concentration) and various concentrations of HN252 and stopped by addition of 0.5 M EDTA (pH 10.0) after an appropriate time. The Km value of PPM1B towards pNPP hydrolysis (3.6 mM for pNPP) was used to determine the IC50. The IC50 values, the inhibition constant Ki and inhibition pattern were evaluated as previously described. ^18 The kinetic assays of HN252 towards to other protein phosphatases were carried out as previously described. ^19

With `Nc1cc(-c2ccc(-c3ccc(O)c(O)c3)cc2)ccc1C(=O)O` [HN252], the values for the half-maximal inhibitory concentration (IC50) in test [1], in test [2] and in test [3] were 20.9 ± 1.74 µM, 77.2 ± 7.95 µM and 54.6 ± 13 µM, respectively.
